In US11180474B2 (BRISTOL-MYERS SQUIBB COMPANY, priority 2016, dated 2021):

Key:
human TLR7 = target: T1, human TLR7 (Homo sapiens, UniProt Q9NYK1); experiment: TLR7 inhibition reporter assay (HEK-Blue cells, SEAP reporter, gardiquimod stimulation); assay type: cell-based; conditions: HEK-Blue cells overexpressing human TLR7, gardiquimod 7.5 μM
T1 construct: host or cells: HEK-Blue cells
T1 sequence (Q9NYK1 27-1049): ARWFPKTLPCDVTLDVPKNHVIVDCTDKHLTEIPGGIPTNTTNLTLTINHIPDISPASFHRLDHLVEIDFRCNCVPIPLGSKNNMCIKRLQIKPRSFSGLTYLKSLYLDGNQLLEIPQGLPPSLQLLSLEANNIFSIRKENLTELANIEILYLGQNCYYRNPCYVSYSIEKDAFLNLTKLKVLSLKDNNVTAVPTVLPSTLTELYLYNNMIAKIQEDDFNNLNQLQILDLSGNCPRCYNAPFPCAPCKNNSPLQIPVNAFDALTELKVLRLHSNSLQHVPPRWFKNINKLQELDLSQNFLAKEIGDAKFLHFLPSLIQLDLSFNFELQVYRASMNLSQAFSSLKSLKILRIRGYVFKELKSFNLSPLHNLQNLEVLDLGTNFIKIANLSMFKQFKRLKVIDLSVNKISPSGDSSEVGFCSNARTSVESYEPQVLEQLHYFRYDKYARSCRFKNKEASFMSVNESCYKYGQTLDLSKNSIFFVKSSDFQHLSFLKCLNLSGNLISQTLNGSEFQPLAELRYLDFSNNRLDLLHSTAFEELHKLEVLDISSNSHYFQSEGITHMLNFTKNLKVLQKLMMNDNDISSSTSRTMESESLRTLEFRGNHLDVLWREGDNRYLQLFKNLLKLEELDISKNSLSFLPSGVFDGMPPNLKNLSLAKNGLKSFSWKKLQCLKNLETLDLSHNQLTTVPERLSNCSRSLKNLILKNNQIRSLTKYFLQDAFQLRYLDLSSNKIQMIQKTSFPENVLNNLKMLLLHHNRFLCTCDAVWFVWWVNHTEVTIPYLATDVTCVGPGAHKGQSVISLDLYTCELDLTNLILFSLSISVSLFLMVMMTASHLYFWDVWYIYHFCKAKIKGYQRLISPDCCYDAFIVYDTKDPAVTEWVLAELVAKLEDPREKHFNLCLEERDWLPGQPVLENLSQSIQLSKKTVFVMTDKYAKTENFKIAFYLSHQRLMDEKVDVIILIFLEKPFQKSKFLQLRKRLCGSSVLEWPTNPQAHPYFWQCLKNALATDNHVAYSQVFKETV
Summary of the method: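 HEK-Blue reporter cells (15,000/well TLR7, 20,000 TLR8) exposed to compound over 0.05 nM–50 μM, agonist-stimulated (R848 for TLR8, gardiquimod for TLR7), 22 h at 37 °C, 5% CO2. SEAP read with HEK-Blue Detection; % inhibition relative to agonist-plus-DMSO and known-inhibitor controls.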

human TLR9 = target: T2, human TLR9 (Homo sapiens, UniProt Q9NR96); experiment: TLR9 inhibition reporter assay (HEK-Blue cells, SEAP reporter, ODN2006 stimulation); assay type: cell-based; conditions: HEK-Blue cells overexpressing human TLR9, ODN2006 5 nM
T2 construct: host or cells: HEK-Blue cells
T2 sequence (Q9NR96 26-1032): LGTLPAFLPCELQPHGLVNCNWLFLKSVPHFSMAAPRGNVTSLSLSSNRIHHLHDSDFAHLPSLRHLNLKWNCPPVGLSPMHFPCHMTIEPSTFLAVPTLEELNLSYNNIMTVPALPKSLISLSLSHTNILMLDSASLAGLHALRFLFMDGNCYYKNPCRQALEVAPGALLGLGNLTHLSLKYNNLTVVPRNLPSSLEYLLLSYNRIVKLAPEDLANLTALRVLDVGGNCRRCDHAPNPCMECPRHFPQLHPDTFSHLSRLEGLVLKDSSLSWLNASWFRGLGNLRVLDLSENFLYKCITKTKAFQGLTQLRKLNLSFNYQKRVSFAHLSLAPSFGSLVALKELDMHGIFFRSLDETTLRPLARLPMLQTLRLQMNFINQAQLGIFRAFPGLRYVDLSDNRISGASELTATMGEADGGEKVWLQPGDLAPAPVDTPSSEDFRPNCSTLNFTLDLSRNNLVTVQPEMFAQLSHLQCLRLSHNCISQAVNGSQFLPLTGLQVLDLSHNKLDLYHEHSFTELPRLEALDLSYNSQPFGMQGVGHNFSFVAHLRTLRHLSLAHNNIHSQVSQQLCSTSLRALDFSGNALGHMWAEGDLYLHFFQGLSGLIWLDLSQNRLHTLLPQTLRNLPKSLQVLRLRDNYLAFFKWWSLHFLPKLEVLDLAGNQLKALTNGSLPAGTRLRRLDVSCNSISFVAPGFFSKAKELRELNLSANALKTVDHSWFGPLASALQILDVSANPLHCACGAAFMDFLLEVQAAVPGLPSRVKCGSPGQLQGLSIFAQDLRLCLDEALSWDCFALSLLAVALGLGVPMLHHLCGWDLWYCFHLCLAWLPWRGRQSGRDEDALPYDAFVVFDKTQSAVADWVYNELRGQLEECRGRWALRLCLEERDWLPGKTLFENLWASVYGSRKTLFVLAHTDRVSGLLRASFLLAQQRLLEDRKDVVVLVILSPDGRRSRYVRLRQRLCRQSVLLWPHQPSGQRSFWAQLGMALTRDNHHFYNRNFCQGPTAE
Summary of the method: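 Agonists used: gardiquimod 7.5 μM (TLR7), R848 15.9 μM (TLR8), ODN2006 5 nM (TLR9), added after 30 min room-temperature compound pre-treatment (0.05 nM–50 μM) of receptor-overexpressing HEK-Blue cells. SEAP reporter (NF-κB/AP-1 driven) read after 22 h at 37 °C; inhibition scaled between agonist+DMSO and reference-inhibitor wells.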

SMILES | IC50 (human TLR7) [nM] | IC50 (human TLR9) [µM]
COc1ccc(-c2[nH]c3ccc(C4CCN(C(=O)CNc5cc(C(C)(C)C)n[nH]5)CC4)cc3c2C(C)C)cc1OC [Example 216, 2-((3-(tert-butyl)-1H-pyrazol-5-yl)amino)-1-(4-(2-(3,4-dimethoxyphenyl)-3-isopropyl-1H-indol-5-yl)piperidin-1-yl)ethan-1-one] | 212 | ≥ 50
COc1ccc(-c2[nH]c3ccc(C4CCN(C(=O)CNCC(F)(F)F)CC4)cc3c2C(C)C)cc1OC [Example 221, 1-(4-(2-(3,4-dimethoxyphenyl)-3-isopropyl-1H-indol-5-yl)piperidin-1-yl)-2-((2,2,2-trifluoroethyl)amino)ethan-1-one] | 162 | ≥ 50
COc1ccc(-c2[nH]c3ccc(C4CCN(C(=O)CN5CCCCC5C[C@@H]5CCCN5C)CC4)cc3c2C(C)C)cc1OC (stereo partly drawn) [Example 225, 1-(4-(2-(3,4-dimethoxyphenyl)-3-isopropyl-1H-indol-5-yl)piperidin-1-yl)-2-(2-(((S)-1-methylpyrrolidin-2-yl)methyl)piperidin-1-yl)ethan-1-one] | 445 | 3.23
COc1ccc(-c2[nH]c3ccc(C4CCN(Cc5cccc(NS(C)(=O)=O)c5)CC4)cc3c2C(C)C)cc1OC [Example 260, N-(3-((4-(2-(3,4-dimethoxyphenyl)-3-isopropyl-1H-indol-5-yl)piperidin-1-yl)methyl)phenyl)methanesulfonamide] | 64 | 2.7
COc1ccc(-c2[nH]c3ccc(C4CCN(Cc5nccs5)CC4)cc3c2C(C)C)cc1OC [Example 261, 2-((4-(2-(3,4-dimethoxyphenyl)-3-isopropyl-1H-indol-5-yl)piperidin-1-yl)methyl)thiazole] | 180 | 5.76
COc1ccc(-c2[nH]c3ccc(C4CCN(Cc5ccc(-n6ccnc6)cc5)CC4)cc3c2C(C)C)cc1OC [Example 263, 5-(1-(4-(1H-imidazol-1-yl)benzyl)piperidin-4-yl)-2-(3,4-dimethoxyphenyl)-3-isopropyl-1H-indole] | 82 | 0.79
COc1ccc(-c2[nH]c3ccc(C4CCN(Cc5cccc(C#N)c5)CC4)cc3c2C(C)C)cc1OC [Example 264, 3-((4-(2-(3,4-dimethoxyphenyl)-3-isopropyl-1H-indol-5-yl)piperidin-1-yl)methyl)benzonitrile] | 364 | 5.09

The next lines start with the values.

IC50 (human TLR7) [nM] | IC50 (human TLR9) [µM] | SMILES
180 | ≥ 50 | CCC(CC)CN1CCC(c2ccc3[nH]c(-c4ccc(OC)c(OC)c4)c(C(C)C)c3c2)CC1 [Example 265, 2-(3,4-dimethoxyphenyl)-5-(1-(2-ethylbutyl)piperidin-4-yl)-3-isopropyl-1H-indole]
2690 | 18.6 | COc1ccc(-c2[nH]c3ccc(C4CCN(Cc5cccc(C(F)(F)F)c5)CC4)cc3c2C(C)C)cc1OC [Example 269, 2-(3,4-dimethoxyphenyl)-3-isopropyl-5-(1-(3-(trifluoromethyl)benzyl)piperidin-4-yl)-1H-indole]
191 | 1.94 | COc1ccc(-c2[nH]c3ccc(C4CCN(Cc5ccc(N(C)C)cc5)CC4)cc3c2C(C)C)cc1OC [Example 270, 4-((4-(2-(3,4-dimethoxyphenyl)-3-isopropyl-1H-indol-5-yl)piperidin-1-yl)methyl)-N,N-dimethylaniline]
2380 | 10.6 | COc1ccc(-c2[nH]c3ccc(C4CCN(Cc5ccc(OC(F)(F)F)cc5)CC4)cc3c2C(C)C)cc1OC [Example 271, 2-(3,4-dimethoxyphenyl)-3-isopropyl-5-(1-(4-(trifluoromethoxy)benzyl)piperidin-4-yl)-1H-indole]
300 | 1.64 | COc1ccc(-c2[nH]c3ccc(C4CCNCC4)cc3c2C2CCOCC2)cc1OC [Example 389, 2-(3,4-dimethoxyphenyl)-5-(piperidin-4-yl)-3-(tetrahydro-2H-pyran-4-yl)-1H-indole]
248 | 4.85 | COc1ccc(-c2[nH]c3ccc(C4CCN(C(=O)CN(C)C)CC4)cc3c2C2CCOCC2)cc1OC [Example 393, 1-(4-(2-(3,4-dimethoxyphenyl)-3-(tetrahydro-2H-pyran-4-yl)-1H-indol-5-yl)piperidin-1-yl)-2-(dimethylamino)ethan-1-one]
2130 | 1.07 | COc1ccc(-c2[nH]c3ccc(C4CCN(CCN(C)C)CC4)cc3c2C)cc1OC [Example 415, 2-(4-(2-(3,4-dimethoxyphenyl)-3-methyl-1H-indol-5-yl)piperidin-1-yl)-N,N-dimethylethan-1-amine]
677 | 0.291 | COc1ccc(-c2[nH]c3ccc(C4CCN(C5CCCN(CC(C)C)C5)CC4)cc3c2C)cc1OC (centres unmarked) [Example 416, 2-(3,4-dimethoxyphenyl)-5-(1′-isobutyl-[1,3′-bipiperidin]-4-yl)-3-methyl-1H-indole]
1180 | 0.565 | COc1ccc(-c2[nH]c3ccc(C4CCN(C5CCCN(CC(C)C)C5)CC4)cc3c2C)cc1OC (centres unmarked) [Example 417, 2-(3,4-dimethoxyphenyl)-5-(1′-isobutyl-[1,3′-bipiperidin]-4-yl)-3-methyl-1H-indole]
